Measurements as given in patent publication US20210299082A1, “FISETIN COMPOSITION AND A METHOD OF MAKING THE SAME” (priority 2020, published 2021).
Like-named read-outs stand apart in the source and are kept apart here.

Key:
blood glucose level = blood glucose level in a person after oral fisetin; assay type: in vivo, human
Procedure: In still another example of the embodiment, fisetin can be used to decrease blood glucose level. Fisetin (500 mg) was ingested by a person after mixing with 75 mL of 53% ethanol and 47% water for 3 consecutive days.

[1] = solubility of fisetin in water and in ethanol; assay type: physicochemical
Procedure: In one embodiment of the invention, a fisetin composition comprises fisetin and a second component that is selected from a group that comprises ethanol. The group may further comprise water. In one example, the solubility of fisetin in water is substantially 0.05 mg/mL or more, such as 0.1 mg/mL or more, 0.15 mg/mL or more, or 0.2 mg/mL. In another example, the solubility of fisetin in ethanol is substantially 2 mg/mL or more, such as 4 mg/mL or more, 6 mg/mL or more, 8 mg/mL or more, or 10 mg/mL or more.

skin of 20 people = experiment: topical skin treatment; assay type: in vivo, human; conditions: 200 mM fisetin in polyethylene glycol containing titanium nanoparticles; applied to the skin of 20 people for 2 days
Procedure: In yet another example of the invention, fisetin can be used as a topical skin treatment. Fisetin was dissolved in polyethylene glycol containing titanium nanoparticles with a resulting fisetin concentration of 200 mM. Fisetin was applied to the skin of 20 people for 2 days.

joint pain in a person = experiment: joint pain relief in a person after oral fisetin; assay type: in vivo, human; conditions: for reported joint pain: ingested 5 consecutive days
Procedure: In still another embodiment of the invention, the fisetin composition is used to relieve joint pain in a person. A person ingested fisetin (500 mg) in capsule powder form for 5 consecutive days, fisetin (500 mg) mixed in 35 mL of MCT oil for 5 consecutive days, or fisetin (500 mg) mixed in 40 mL of 40% ethanol and 60% water for 5 consecutive days, each test separated by a month. Reported joint pain decreased only after consuming fisetin in 40% ethanol and 60% water, but not the other regimens.

[2] = 500 mg in 75 mL of 53% ethanol and 47% water, 3 consecutive days
[3] = 500 mg for 5 consecutive days, regimen not specified, stated after the 40% ethanol and 60% water result

Q: For `O=c1c(O)c(-c2ccc(O)c(O)c2)oc2cc(O)ccc12` [fisetin], which energy (blood glucose level; [2]) is on record?
A: slight increase

Q: And the metabolism (blood glucose level; [2])?
A: slight increase

Q: And the weight decrease (blood glucose level; 500 mg in 75 mL of 53% ethanol and 47% water, 3 consecutive days, to a BMI 22.1)?
A: approx. 1 kg

Q: What about the “waking blood glucose level after the administration” value (blood glucose level; 500 mg mixed with 75 mL of 53% ethanol and 47% water, 3 consecutive days, decreased from 5.7 mmol/L) of the same compound?
A: 4.8 mmol/L

Q: And the muscle gain (blood glucose level; in a month afterwards without increased exercise)?
A: slight muscle gain

Q: And the solubility ([1]; in water, read-out: solubility of fisetin in water)?
A: ≥ 50 µg/mL

Q: And the solubility ([1]; organic solvent or mixture, in ethanol, read-out: solubility of fisetin in ethanol)?
A: ≥ 2000 µg/mL

Q: And the “skin appearance reported by subjects” value (skin of 20 people)?
A: improved skin appearance

Q: What about the energy (joint pain in a person; [3]) of the same compound?
A: slight increase

Q: What about the metabolism (joint pain in a person; [3]) of the same compound?
A: slight increase

Q: What about the weight decrease (joint pain in a person; 500 mg for 5 consecutive days, to a BMI 23.7) of the same compound?
A: approximately 1 kg

Q: And the reported joint pain (joint pain in a person; 500 mg in capsule powder form)?
A: not

Q: What about the reported joint pain (joint pain in a person; 500 mg mixed in 35 mL of MCT oil) of the same compound?
A: not

Q: What about the reported joint pain (joint pain in a person; 500 mg mixed in 40 mL of 40% ethanol and 60% water) of the same compound?
A: decreased
